Experiments:
Type in all cases: cell-based, human
[1] = test system: MBNL2 exon 7; experiment: RT-PCR alternative splicing assay, MBNL2 exon 7; conditions: DM1 myoblasts
Protocol: (§1) Human myoblasts were obtained from the Myosix institute associated with the Association Frangaise contre les Myopathies (AFM). Five primary myoblast lines were obtained as controls, and one line from a DM1 patient with a 3.8 Kb CTG triplet amplification corresponding to approximately 1250 CTG repeats. The human myoblasts are cultivated in HAM-F10 media (SIGMA N6635) with 15% FBS, 1% chick embryo extract, and 390 ng/ml of dexamethasone. One day before adding compounds, 2×10^5 cells were plated in 100 mm plates (for CUGBP1 western blot or RT-PCR alternative splicing assay) or 2×10^4 cells/well are seeded in 12-well plates containing 12 mm round glass coverslips (for FISH to detect RNA foci). […]
(§2) For Western blots, CUGBP1 was detected with the 3B1-3D11 monoclonal antibody (mAb) (SIGMA C5112) and GAPDH was detected with the 6C5 mAb (Millipore MAB374). The enhanced chemiluminescence signal (ECL) was acquired and quantified with the ChemiDoc™ MP imaging system (Bio-Rad). […] The alternative splicing of the hnRNPA2/B1 transcript was detected with the primers 5′-[…]-3′ (SEQ ID NO:7) and 5′-[…]-3′ (SEQ ID NO:8). PCR was performed with Taq using standard conditions but the number of amplification cycles was optimized to be in the quantitative range for each gene. […]

[2] = test system: SERCA1 exon 22; experiment: RT-PCR alternative splicing assay, SERCA1 exon 22; conditions: DM1 myoblasts, 20 μM, 7 days; WT 59%, DM1 less than 2% (FIG. 8B)
Protocol: as §1, §2

[3] = test system: CUGBP1; experiment: Western blot of CUGBP1 protein levels in myoblasts; conditions: 20 μM, 7 days (FIG. 7); for reduction of CUGBP1 levels: DM1 myoblasts
Protocol: Human myoblasts were obtained from the Myosix institute associated with the Association Frangaise contre les Myopathies (AFM). Five primary myoblast lines were obtained as controls, and one line from a DM1 patient with a 3.8 Kb CTG triplet amplification corresponding to approximately 1250 CTG repeats. The human myoblasts are cultivated in HAM-F10 media (SIGMA N6635) with 15% FBS, 1% chick embryo extract, and 390 ng/ml of dexamethasone. One day before adding compounds, 2×10^5 cells were plated in 100 mm plates (for CUGBP1 western blot or RT-PCR alternative splicing assay) or 2×10^4 cells/well are seeded in 12-well plates containing 12 mm round glass coverslips (for FISH to detect RNA foci). One day after plating, media is replaced with fresh media containing the compounds at the desired concentration in this manner: the media is put in a screw-cap tube and heated at 37° C. The 20 mM compound stock in 100% DMSO is pipetted directly into the media and the tube is mixed well by inversion and gentle vortexing, and immediately overlayed on the cells. Pure DMSO is used for the control cells. Final concentrations on myoblasts are never higher than 0.5%. This procedure is repeated twice during the seven days of treatment, the media is thus replaced with fresh media containing compound every 2-3 days. Cells are collected or fixed for FISH after one week.
For Western blots, CUGBP1 was detected with the 3B1-3D11 monoclonal antibody (mAb) (SIGMA C5112) and GAPDH was detected with the 6C5 mAb (Millipore MAB374). The enhanced chemiluminescence signal (ECL) was acquired and quantified with the ChemiDoc™ MP imaging system (Bio-Rad). For alternative splicing assays, total RNA was collected with Trizol™ (Invitrogen), and 1 μg was used for reverse transcription with random primers with the RevertAid™ H Minus M-MuL RT (Fermentas) according to manufacturer's instructions. For MBNL2, PCR amplification was performed with primers 5′-[…]-3′ (SEQ ID NO:1) and 5′-[…]-3′ (SEQ ID NO:2). SERCA1 was amplified with primers 5′-[…]-3′ (SEQ ID NO:3) and 5′-[…]-3′ (SEQ ID NO:4). For TNNT2 (cardiac Troponin T), PCR was carried out with primers 5′-[…]-3′ (SEQ ID NO:5) and 5′-[…]-3′ (SEQ ID NO:6). The alternative splicing of the hnRNPA2/B1 transcript was detected with the primers 5′-[…]-3′ (SEQ ID NO:7) and 5′-[…]-3′ (SEQ ID NO:8). PCR was performed with Taq using standard conditions but the number of amplification cycles was optimized to be in the quantitative range for each gene. The products of PCR amplification were resolved on 3.5% agarose gels containing Gelred™ (Biotium) and images were acquired and quantified with the ChemiDoc™ MP imaging system (Bio-Rad). […]

[4] = test system: MBNL1 mRNA exon 7; experiment: RT-PCR alternative splicing assay, MBNL1 exon 7; conditions: DM1 myoblasts, 5 to 60 μM, 7 days (FIG. 12B)

Row | SMILES | inclusion of MBNL2 exon 7 ([1]; 20 μM, 7 days, from 40% (FIG. 8D)) [%] | inclusion of SERCA1 exon 22, of total transcripts [2] [%] | reduction of CUGBP1 levels [3] [%] | change of CUGBP1 levels in WT cells ([3]; WT myoblasts) | dose-response effect on splicing of MBNL2 mRNA ([1]; 5 to 60 μM, 7 days (FIG. 12A)) | dose-response effect on splicing of MBNL1 mRNA [4]
1 | CCCN(CCC)S(=O)(=O)c1ccc(NS(=O)(=O)Cc2ccccc2)cc1 [Compound 15] | 25 | 17 | 85 | does not change | – | –
2 | CCCc1c(C(=O)N(Cc2ccccc2)Cc2cccs2)cnn1-c1ccccc1 [Compound 32] | – | – | 30 | – | clear dose-response effect | clear dose-response effect

From US10092574B2, “Inhibitors of polynucleotide repeat-associated RNA foci and uses thereof” (VALORISATION-RECHERCHE, LIMITED PARTNERSHIP, priority 2013, dated 2018)
